Measured values reported in patent EP4603105A1, “PHARMACEUTICAL COMPOSITION CONTAINING CYCLIC COMPOUND HAVING SELECTIVE KRAS INHIBITORY EFFECT AGAINST HRAS AND NRAS” (CHUGAI SEIYAKU KABUSHIKI KAISHA, priority 2022, dated 2024).
Where a SMILES comes first, the peptide text is derived from it. Bridges are numbered along the chain shown (N, C = ends). [ ]: non-standard residue; d: D form. The star is where a group is joined. hPhe(3-Cl-4-CF3) = N[C@@H](CCc1ccc(C(F)(F)F)c(Cl)c1)C(=O)O; NPrPhe(4-CF3) = CCCN[C@@H](Cc1ccc(C(F)(F)F)cc1)C(=O)O; NMeGly(cPent) = CN[C@H](C(=O)O)C1CCCC1; Pro(4,4-F2) = O=C(O)[C@@H]1CC(F)(F)CN1; Hyp = O=C(O)[C@@H]1C[C@@H](O)CN1; NMeD = CN[C@@H](CC(=O)O)C(=O)O; NMeL = CN[C@@H](CC(C)C)C(=O)O; Morpholide = C1CN(*)CCO1; Ac5c = NC1(C(=O)O)CCCC1; Aze = O=C(O)[C@@H]1CCN1; Ac4c = NC1(C(=O)O)CCC1; NPrGly = CCCNCC(=O)O; NEtG = CCNCC(=O)O; Sar = CNCC(=O)O

How the values were obtained:
[1] = target: GDP-bound NRAS wild-type protein (Homo sapiens, UniProt P01111); assay: Binding to NRAS by surface plasmon resonance (SPR), KD and KD ratio to KRAS
GDP-bound NRAS wild-type protein, sequence (P01111 whole entry): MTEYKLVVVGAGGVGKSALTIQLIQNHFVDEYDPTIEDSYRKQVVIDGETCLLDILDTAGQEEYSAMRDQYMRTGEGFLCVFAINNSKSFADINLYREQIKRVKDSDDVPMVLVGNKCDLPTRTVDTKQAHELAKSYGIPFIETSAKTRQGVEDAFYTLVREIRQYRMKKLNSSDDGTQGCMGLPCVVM
How it was run: (§1)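 Running buffer contained 10 µM GDP and 10 mM MgCl2 to keep RAS in the GDP state, with 4% DMSO at pH 7.4. Compounds were flowed at 100 µL/min in 75 s steps of rising concentration over captured biotin-Avi RAS at 30°C. Sensorgrams were fitted 1:1 for KD.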

[2] = target: HRAS wild-type protein (Homo sapiens, UniProt P01112); assay: Binding to HRAS by surface plasmon resonance (SPR), KD and KD ratio to KRAS
HRAS wild-type protein, sequence (P01112 whole entry): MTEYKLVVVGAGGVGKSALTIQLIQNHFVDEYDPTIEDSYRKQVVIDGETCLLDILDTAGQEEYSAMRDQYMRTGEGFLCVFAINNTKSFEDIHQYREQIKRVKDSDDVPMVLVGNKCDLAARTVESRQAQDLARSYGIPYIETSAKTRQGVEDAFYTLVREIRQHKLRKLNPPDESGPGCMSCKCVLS
How it was run: as §1

[3] = test system: human lung cancer strain NCI-H441; assay type: cell-based
How it was run: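 Step one: dispense the test compound in serial DMSO dilutions. Step three: add the reagent and measure […].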

[4] = ratio of KD for GDP-bound NRAS wild-type protein to KD for KRAS
[5] = ratio of KD for HRAS wild-type protein to KD for KRAS
[6] = ratio of the KD value with respect to GDP-bound NRAS wild-type protein to the KD value with respect to KRAS
[7] = ratio of the KD value with respect to HRAS wild-type protein to the KD value with respect to KRAS

Row | Structure (SMILES) | IC50 [3] [nM] | NRAS /KRAS [1, 4] | HRAS /KRAS [2, 5] | NRAS /KRAS [1, 6] | HRAS /KRAS [2, 7]
1 | CCC[C@H]1C(=O)N[C@@H]([C@@H](C)CC)C(=O)N(C2CC2)CC(=O)N(C)[C@H]2C/C=C\CCN(C2=O)[C@@H](Cc2ccc(C)cc2)C(=O)N(C)CC(=O)N[C@@H](CCc2ccc(C3CC3)c(Cl)c2)C(=O)N2C[C@H](OCC)C[C@H]2C(=O)NC2(CC(C)(C)C2)C(=O)N(C)[C@@H](C2CCCC2)C(=O)N(C)[C@H](C(=O)N(C)C)CC(=O)N1C [PP2885] | 80.6 | A (a compound having 10 or more and less than 20 is denoted as A) | A (a compound having 10 or more and less than 20 is denoted as A) | – | –
2 | CCO[C@@H]1C[C@H]2C(=O)NC3(CC(C)(C)C3)C(=O)N(C)[C@@H](C3CCCC3)C(=O)N(C)[C@H](C(=O)N(C)CC)CC(=O)N(C)[C@@H](C3CC3)C(=O)N[C@@H]([C@@H](C)CC)C(=O)N(C)CC(=O)N(C)[C@H]3C/C=C\CCN(C3=O)[C@@H](Cc3ccc(C(F)(F)F)cc3)C(=O)N(C)CC(=O)N[C@@H](CCc3ccc(C(F)(F)F)c(OC)c3)C(=O)N2C1 [PP1981] | 20.7 | – | – | A (a compound having 10 or more and less than 20 is denoted as A) | A (a compound having 10 or more and less than 20 is denoted as A)
3 | CCC[C@H]1C(=O)N[C@@H]([C@@H](C)CC)C(=O)N(C2CC2)CC(=O)N(C)[C@H]2C/C=C\CCN(C2=O)[C@@H](Cc2ccc(C(F)(F)F)cc2)C(=O)N(C)CC(=O)N[C@@H](CCc2cc(F)c(C(F)(F)F)c(F)c2)C(=O)N2C[C@H](OCC)C[C@H]2C(=O)NC2(CC(C)(C)C2)C(=O)N(C)[C@@H](C2CCCC2)C(=O)N(C)[C@H](C(=O)N(C)C)CC(=O)N1C [PP2101] | 16.6 | – | – | A (a compound having 10 or more and less than 20 is denoted as A) | B (a compound having 3 or more and less than 10 is denoted as B)
4 | CCCN1CC(=O)NC2(CCCC2)C(=O)N(C)[C@@H](C2CCCC2)C(=O)N(C)[C@H](C(=O)N2CCOCC2)CC(=O)N(C)[C@@H](CC(C)C)C(=O)N[C@@H]([C@@H](C)CC)C(=O)N(CC)CC(=O)N(C)CC(=O)N(CCC)[C@@H](Cc2ccc(C(F)(F)F)cc2)C(=O)N(C)CC(=O)N[C@@H](CCc2ccc(C(F)(F)F)c(Cl)c2)C1=O [PP0301] ([NMeL]I[NEtG][Sar][NPrPhe(4-CF3)][Sar][hPhe(3-Cl-4-CF3)][NPrGly][Ac5c][NMeGly(cPent)][NMeD]-Morpholide; lactam N-11) | 88.2 | B (a compound having 3 or more and less than 10 is denoted as B) | C (A compound having a KD ratio of 0.1 or more and less than 3 is denoted as C) | – | –

Compounds with a lower IC50 [3], results first:

Row | IC50 [3] [nM] | Structure (SMILES) | NRAS /KRAS [1, 4] | HRAS /KRAS [2, 5] | NRAS /KRAS [1, 6] | HRAS /KRAS [2, 7]
5 | 13 | CCO[C@@H]1C[C@H]2C(=O)NC3(CC(C)(C)C3)C(=O)N(C)[C@@H](C3CCCC3)C(=O)N(C)[C@H](C(=O)N(C)CC)CC(=O)N(C)[C@@H](COC)C(=O)N[C@@H]([C@@H](C)CC)C(=O)N(C)CC(=O)N(C)[C@H]3C/C=C\CCN(C3=O)[C@@H](Cc3ccc(C(F)(F)F)cc3)C(=O)N(C)CC(=O)N[C@@H](CCc3ccc(Cl)c(Cl)c3)C(=O)N2C1 [PP2835] | A (a compound having 10 or more and less than 20 is denoted as A) | A (a compound having 10 or more and less than 20 is denoted as A) | – | –
6 | 4.6 | CCCN1C(=O)CN(C)C(=O)CN(CC)C(=O)[C@H]([C@@H](C)CC)NC(=O)[C@H](CC(C)C)N(C)C(=O)C[C@@H](C(=O)N(C)C)N(C)C(=O)[C@H](C2CCCC2)N(C)C(=O)C2(CCC2)NC(=O)[C@@H]2C[C@@H](OCC)CN2C(=O)[C@H](CCc2ccc(C(F)(F)F)c(Cl)c2)NC(=O)CN(C)C(=O)[C@@H]1Cc1ccc(C(F)(F)F)cc1 [PP0428] ([NMeL]I[NEtG][Sar][NPrPhe(4-CF3)][Sar][hPhe(3-Cl-4-CF3)][Hyp](Et)[Ac4c][NMeGly(cPent)][NMeD]-NMe2; lactam N-11) | – | – | B (a compound having 3 or more and less than 10 is denoted as B) | C (A compound having a KD ratio of 0.1 or more and less than 3 is denoted as C)
7 | 0.8 | CCCN1C(=O)[C@@H]2CCN2C(=O)CN(C)C(=O)[C@H]([C@@H](C)CC)NC(=O)[C@H](CC(C)C)N(C)C(=O)C[C@@H](C(=O)N(C)C)N(C)C(=O)[C@H](C2CCCC2)N(C)C(=O)C2(CCCC2)NC(=O)[C@@H]2CC(F)(F)CN2C(=O)[C@H](CCc2ccc(C(F)(F)F)c(Cl)c2)NC(=O)CN(C)C(=O)[C@@H]1Cc1ccc(C(F)(F)F)cc1 [PP0442] ([NMeL]I[Sar][Aze][NPrPhe(4-CF3)][Sar][hPhe(3-Cl-4-CF3)][Pro(4,4-F2)][Ac5c][NMeGly(cPent)][NMeD]-NMe2; lactam N-11) | – | – | C (A compound having a KD ratio of 0.1 or more and less than 3 is denoted as C) | C (A compound having a KD ratio of 0.1 or more and less than 3 is denoted as C)
